Assay [1] deals with immature CE (cornified envelope) in stratum corneum. Briefly: CE Maturation Promoting Test, incubation varied to 37° C. and 100% relative humidity for a day. Further details: species or system human. As to the method:
(§1) Stratum corneum containing many immature CE's were taken from the subjects suffering from skin troubles such as chapping, by means of tape stripping. To the stratum corneum still adhering to the tapes, a test solution was applied, followed by 4 days' incubation under the conditions of 30° C. in temperature and 70% in humidity. After end of the incubation, a tris-hydrochloric acid buffer solution containing dithiothreitol and sodium dodecylsulfate was added, followed by 10 minutes' heating at 100° C. The insoluble matter was collected by centrifuge at 4000 g for 10 minutes. Addition of the eluate and heating cycle was further repeated to thoroughly remove the soluble component. Thus obtained insoluble matter was used as CE.
Properties of each CE thus isolated were evaluated by the following method: CE was spotted on a piece of slide glass, air-dried and fixed in cold acetone. Hydrating the same with Dulbecco's phosphate buffered saline, it was reacted with mouse anti-human involucrin antibody (NOVOCASTRA Co.) as the primary antibody. Excessive antibody was removed by washing and the residue was reacted with FITC-labeled rabbit anti-mouse immunoglobulin antibody as the secondary antibody. Excessive antibody was removed by washing, and the residue was reacted with Nile Red dye solution, sealed and observed with a fluorescence microscope. The observed images were taken into computer via CCD camera, and the ratio of involucrin positive immature CE and that of Nile Red-positive mature CE were evaluated using an image analysis software (Win Roof) or the like.
Procedures similar to Example 1 were repeated, except that the incubation conditions were varied to 37° C. and 100% (relative humidity) for a day.

Assay [2] shares this test system. Kind of assay: CE Maturation Promoting Test (tape-stripped stratum corneum, 4 days' incubation at 30° C., 70% humidity). Set-up: species or system human. The conditions noted are these: test solution applied to tape-stripped stratum corneum, involucrin/Nile Red staining, mean of N = 3, water control 11.7. The procedure:
as §1
Properties of each CE thus isolated were evaluated by the following method: CE was spotted on a piece of slide glass, air-dried and fixed in cold acetone. […] Excessive antibody was removed by washing, and the residue was reacted with Nile Red dye solution, sealed and observed with a fluorescence microscope. The observed images were taken into computer via CCD camera, and the ratio of involucrin positive immature CE and that of Nile Red-positive mature CE were evaluated using an image analysis software (Win Roof) or the like.

The mark [3] stands for this setting: Table 3, one day, mean of N = 3, before treatment 28.3, 0.1 M MES buffer pH5.5 control 3.0.
The mark [4] stands for this setting: Table 2, one day, mean of N = 3, water control 36.9.

The source of these data is patent US20040115150A1, “Cosmetics and treatment method for promoting maturation of cornified envelopes” (priority 2001, published 2004).

In the case of `O[C@H](CS)[C@H](O)CS` (racemic) [10 mM dithiothreitol, dithiothreitol], in assay [1] (setting [3]), the “Ratio of Immature CE (%)” value worked out at 0.33%.

`[Ca+2].[Cl-].[Cl-]` [1 mM calcium chloride, calcium chloride]: the “Ratio of Immature CE (%)” value in assay [1] (setting [3]) stood at 1.83%.

As to `OCC(O)CO` [10% glycerin, glycerin], the “Ratio of Immature CE (%)” value in assay [2] was 6.3%; in assay [1] (setting [4]), 14.6%.

For the compound `C[N+](C)(C)CC(=O)O` [10% trimethyl glycine, trimethyl glycine], the “Ratio of Immature CE (%)” value in assay [1] (setting [4]) was found to be 9.3%.
